Reference: patent publication US6387850B1, “Pesticide composition and method” (Application Technologies, Inc., priority 1998, dated 2002)

Tests used:
Experiment in all cases: Field weed control in glyphosate-tolerant soybeans, visual rating
Format in all cases: in vivo
Settings in all cases: 23 days after application, scale 0 = no, 10 = complete weed control
[1] = test system: giant foxtail (Setaria faberii)
From the text: (§1) Materials and Methods: Applications were made to glyphosate-tolerant soybeans on Jun. 10, 1998. Weed species present ranging in height from 5 to 20 cm included giant foxtail (Setaria faberii), barnyard grass (Echinochloa crus-galli), volunteer corn (Zea mays) and yellow foxtail (Setaria glauca) Treatments were applied using Spraying Systems Turbo TeeJet TT-11002 nozzles spaced 50 cm apart on the spray boom at 207 kPa spray pressure resulting in a spray volume application of […] liters per hectare.
(§2) Spray solutions consisted of two comparison levels of mineral hardness as measured by TDS in ppm. The original solution consisted of 10 ppm. The second solution measuring 400 ppm was established using calcium chloride at approximately 227 grams per 378 liters.
(§3) Herbicide applications of glyphosate in form of Roundup Ultra® (Monsanto Company) formulation were applied at four rates: 26, 53, 105 and 210 grams of acid equivalent per hectare (g ae/ha) A spray adjuvant, Array® at 4 kilograms per 378 liters of spray solution was added to the spray solution prior to the addition of the herbicide. Array was evaluated across herbicide and spray solution treatments. Array consists of a micro-homogenized combination of AMS (ammonium sulfate) fertilizer at 94.4% analysis 21-0-0-24 (nitrogen-phosphorus-potassium-sulfur) and DR 2000 (Rhodia Surfactants) at 5.6%, a short-chain guar-based polymer.

[2] = test system: barnyard grass (Echinochloa crus-galli)
From the text: as §1, §2, §3

[3] = test system: volunteer corn (Zea mays)
From the text: as §1, §2, §3

[4] = test system: yellow foxtail (Setaria glauca)
From the text: as §1, §2, §3

[5] = 26 g ae/ha, solution TDS 10 ppm, Array 4 kg/378 L Yes
[6] = 26 g ae/ha, solution TDS 10 ppm, Array No
[7] = 26 g ae/ha, solution TDS 400 ppm, Array 4 kg/378 L Yes
[8] = 26 g ae/ha, solution TDS 400 ppm, Array No
[9] = 53 g ae/ha, solution TDS 10 ppm, Array 4 kg/378 L Yes
[10] = 53 g ae/ha, solution TDS 10 ppm, Array No
[11] = 53 g ae/ha, solution TDS 400 ppm, Array 4 kg/378 L Yes
[12] = 53 g ae/ha, solution TDS 400 ppm, Array No
[13] = 105 g ae/ha, solution TDS 10 ppm, Array 4 kg/378 L Yes
[14] = 105 g ae/ha, solution TDS 10 ppm, Array No
[15] = 105 g ae/ha, solution TDS 400 ppm, Array 4 kg/378 L Yes
[16] = 105 g ae/ha, solution TDS 400 ppm, Array No
[17] = 210 g ae/ha, solution TDS 10 ppm, Array 4 kg/378 L Yes
[18] = 210 g ae/ha, solution TDS 10 ppm, Array No
[19] = 210 g ae/ha, solution TDS 400 ppm, Array 4 kg/378 L Yes
[20] = 210 g ae/ha, solution TDS 400 ppm, Array No

SMILES: O=C(O)CNCP(=O)(O)O [Glyphosate, glyphosate]
- Visual rating of weed control, Giant Foxtail [1, 5]: 3
- Visual rating of weed control, Giant Foxtail [1, 6]: 2
- Visual rating of weed control, Giant Foxtail [1, 7]: 1
- Visual rating of weed control, Giant Foxtail [1, 8]: 0
- Visual rating of weed control, Giant Foxtail [1, 9]: 4
- Visual rating of weed control, Giant Foxtail [1, 10]: 3
- Visual rating of weed control, Giant Foxtail [1, 11]: 2
- Visual rating of weed control, Giant Foxtail [1, 12]: 1
- Visual rating of weed control, Giant Foxtail [1, 13]: 8
- Visual rating of weed control, Giant Foxtail [1, 14]: 6
- Visual rating of weed control, Giant Foxtail [1, 15]: 3
- Visual rating of weed control, Giant Foxtail [1, 16]: 2
- Visual rating of weed control, Giant Foxtail [1, 17]: 10
- Visual rating of weed control, Giant Foxtail [1, 18]: 9
- Visual rating of weed control, Giant Foxtail [1, 19]: 6
- Visual rating of weed control, Giant Foxtail [1, 20]: 5
- Visual rating of weed control, Barnyard Grass [2, 5]: 3
- Visual rating of weed control, Barnyard Grass [2, 6]: 2
- Visual rating of weed control, Barnyard Grass [2, 7]: 1
- Visual rating of weed control, Barnyard Grass [2, 8]: 0
- Visual rating of weed control, Barnyard Grass [2, 9]: 5
- Visual rating of weed control, Barnyard Grass [2, 10]: 4
- Visual rating of weed control, Barnyard Grass [2, 11]: 2
- Visual rating of weed control, Barnyard Grass [2, 12]: 1
- Visual rating of weed control, Barnyard Grass [2, 13]: 7
- Visual rating of weed control, Barnyard Grass [2, 14]: 5
- Visual rating of weed control, Barnyard Grass [2, 15]: 3
- Visual rating of weed control, Barnyard Grass [2, 16]: 2
- Visual rating of weed control, Barnyard Grass [2, 17]: 10
- Visual rating of weed control, Barnyard Grass [2, 18]: 9
- Visual rating of weed control, Barnyard Grass [2, 19]: 6
- Visual rating of weed control, Barnyard Grass [2, 20]: 5
- Visual rating of weed control, Volunteer Corn [3, 5]: 2
- Visual rating of weed control, Volunteer Corn [3, 6]: 1
- Visual rating of weed control, Volunteer Corn [3, 7]: 1
- Visual rating of weed control, Volunteer Corn [3, 8]: 0
- Visual rating of weed control, Volunteer Corn [3, 9]: 4
- Visual rating of weed control, Volunteer Corn [3, 10]: 3
- Visual rating of weed control, Volunteer Corn [3, 11]: 2
- Visual rating of weed control, Volunteer Corn [3, 12]: 1
- Visual rating of weed control, Volunteer Corn [3, 13]: 8
- Visual rating of weed control, Volunteer Corn [3, 14]: 5
- Visual rating of weed control, Volunteer Corn [3, 15]: 3
- Visual rating of weed control, Volunteer Corn [3, 16]: 2
- Visual rating of weed control, Volunteer Corn [3, 17]: 10
- Visual rating of weed control, Volunteer Corn [3, 18]: 9
- Visual rating of weed control, Volunteer Corn [3, 19]: 6
- Visual rating of weed control, Volunteer Corn [3, 20]: 5
- Visual rating of weed control, Yellow Foxtail [4, 5]: 2
- Visual rating of weed control, Yellow Foxtail [4, 6]: 2
- Visual rating of weed control, Yellow Foxtail [4, 7]: 1
- Visual rating of weed control, Yellow Foxtail [4, 8]: 0
- Visual rating of weed control, Yellow Foxtail [4, 9]: 4
- Visual rating of weed control, Yellow Foxtail [4, 10]: 3
- Visual rating of weed control, Yellow Foxtail [4, 11]: 2
- Visual rating of weed control, Yellow Foxtail [4, 12]: 1
- Visual rating of weed control, Yellow Foxtail [4, 13]: 7
- Visual rating of weed control, Yellow Foxtail [4, 14]: 5
- Visual rating of weed control, Yellow Foxtail [4, 15]: 3
- Visual rating of weed control, Yellow Foxtail [4, 16]: 2
- Visual rating of weed control, Yellow Foxtail [4, 17]: 9
- Visual rating of weed control, Yellow Foxtail [4, 18]: 8
- Visual rating of weed control, Yellow Foxtail [4, 19]: 5
- Visual rating of weed control, Yellow Foxtail [4, 20]: 5
